Test results reported in the NIST ThermoML archive (doi:10.1021/acs.jced.5b00752).
Several values for one entry are separate records, joined by “and”; a condition that tells them apart may be missing. Equal values may be shown once.

Conditions: Closed cell (Static) method

CC[N-]C.CC[N-]C.CC[N-]C.CC[N-]C.[Hf+4] [tetrakis(ethylmethylamino)hafnium]
Crystal
Conditions	vapor or sublimation pressure [kPa]
312.19 K	0.00296
322.2 K	0.00715
332.2 K	0.01587
342.18 K	0.03287
352.19 K	0.0644
362.19 K	0.121
372.21 K	0.216
382.21 K	0.37
392.24 K	0.591

CCOC(=O)c1ccccc1C(=O)OCC [diethyl phthalate]
Liquid
Conditions	vapor or sublimation pressure
312.21 K	0.00032 kPa and 0.00035 kPa
322.21 K	0.00105 kPa and 0.00103 kPa
332.21 K	0.00269 kPa
342.19 K	0.00623 kPa
352.18 K	0.01358 kPa
352.2 K	0.01352 kPa
362.2 K	0.02775 kPa
372.19 K	0.05429 kPa
372.2 K	0.05407 kPa
372.22 K	0.05424 kPa
382.23 K	0.1008 kPa
392.24 K	0.1821 kPa
402.37 K	0.3169 kPa
412.38 K	0.5303 kPa
422.49 K	0.8621 kPa
442.28 K	2.082 kPa
452.12 K	3.099 kPa

c1ccc2ccccc2c1 [naphthalene]
Conditions	vapor or sublimation pressure
312.2 K, Crystal	0.04084 kPa and 0.04083 kPa
317.21 K, Crystal	0.06326 kPa
322.21 K, Crystal	0.09622 kPa
327.21 K, Crystal	0.1447 kPa
332.21 K, Crystal	0.2153 kPa
337.21 K, Crystal	0.315 kPa and 0.3154 kPa
342.19 K, Crystal	0.4556 kPa
347.19 K, Crystal	0.651 kPa
352.19 K, Crystal	0.9213 kPa
357.19 K, Liquid	1.2 kPa
362.2 K, Liquid	1.521 kPa
367.21 K, Liquid	1.915 kPa and 1.914 kPa
372.22 K, Liquid	2.393 kPa
377.22 K, Liquid	2.966 kPa and 2.967 kPa
382.22 K, Liquid	3.657 kPa
387.23 K, Liquid	4.475 kPa and 4.476 kPa
392.24 K, Liquid	5.45 kPa
397.27 K, Liquid	6.593 kPa and 6.596 kPa
402.37 K, Liquid	7.962 kPa
407.32 K, Liquid	9.502 kPa
412.4 K, Liquid	11.33 kPa
422.55 K, Liquid	15.88 kPa
432.58 K, Liquid	21.75 kPa
442.46 K, Liquid	29.18 kPa
452.37 K, Liquid	38.57 kPa

[CH]1C=CC=C1.[CH]1C=CC=C1.[Fe] [ferrocene]
Conditions	vapor or sublimation pressure
312.2 K, Crystal	0.00369 kPa
312.21 K, Crystal	0.00359 kPa
322.21 K, Crystal	0.009 kPa and 0.00911 kPa
332.2 K, Crystal	0.02078 kPa
332.21 K, Crystal	0.02086 kPa and 0.02071 kPa
342.18 K, Crystal	0.04497 kPa and 0.04517 kPa
352.17 K, Crystal	0.0934 kPa [middle of 4 runs]
352.18 K, Crystal	0.09249 kPa and 0.09264 kPa and 0.09328 kPa
352.19 K, Crystal	0.0936 kPa
362.17 K, Crystal	0.1851 kPa and 0.185 kPa
362.18 K, Crystal	0.1854 kPa
372.2 K, Crystal	0.3543 kPa
382.19 K, Crystal	0.6508 kPa
392.2 K, Crystal	1.158 kPa
402.26 K, Crystal	2.001 kPa
402.31 K, Crystal	2.008 kPa
412.24 K, Crystal	3.346 kPa
412.32 K, Crystal	3.361 kPa
422.29 K, Crystal	5.47 kPa
422.4 K, Crystal	5.502 kPa
432.42 K, Crystal	8.756 kPa
442.26 K, Crystal	13.53 kPa
452.08 K, Liquid	19.48 kPa
